Read-outs that look alike come from different tables or passages of the source.
Biological target: T1, BRM (Homo sapiens, UniProt P51531)
T1 construct: In-Cell Western Screen of BRM Degradation in SW1573 Cells; endogenous in cells; host or cells: SW1573
Test: In-cell Western screen of BRM degradation in SW1573 cells (Dmax and DC50)
Format: cell-based
Procedure, shortened: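 SW1573 cells were treated with compound overnight (18-20 h; final DMSO 0.1%), then fixed in 4% PFA, permeabilized with Triton X-100 and blocked. BRM was detected by in-cell Western using 800 nm anti-rabbit and 680 nm anti-mouse secondaries, and Dmax and DC50 were derived from the LI-COR Odyssey signal.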

[1] = BRM degradation, SW1573 cells, read-out: DC50
[2] = BRM degradation, SW1573 cells, tested at the top concentration of between 0.3 and 10 μM, read-out: Dmax (%) (% degraded)
[3] = BRM degradation, SW1573 cells, when tested at the top concentration of between 0.3 and 10 μM, read-out: Dmax (%) (% degraded)
[4] = BRM degradation, SW1573 cells, read-out: Dmax (% degraded)

T1 sequence (P51531 whole entry): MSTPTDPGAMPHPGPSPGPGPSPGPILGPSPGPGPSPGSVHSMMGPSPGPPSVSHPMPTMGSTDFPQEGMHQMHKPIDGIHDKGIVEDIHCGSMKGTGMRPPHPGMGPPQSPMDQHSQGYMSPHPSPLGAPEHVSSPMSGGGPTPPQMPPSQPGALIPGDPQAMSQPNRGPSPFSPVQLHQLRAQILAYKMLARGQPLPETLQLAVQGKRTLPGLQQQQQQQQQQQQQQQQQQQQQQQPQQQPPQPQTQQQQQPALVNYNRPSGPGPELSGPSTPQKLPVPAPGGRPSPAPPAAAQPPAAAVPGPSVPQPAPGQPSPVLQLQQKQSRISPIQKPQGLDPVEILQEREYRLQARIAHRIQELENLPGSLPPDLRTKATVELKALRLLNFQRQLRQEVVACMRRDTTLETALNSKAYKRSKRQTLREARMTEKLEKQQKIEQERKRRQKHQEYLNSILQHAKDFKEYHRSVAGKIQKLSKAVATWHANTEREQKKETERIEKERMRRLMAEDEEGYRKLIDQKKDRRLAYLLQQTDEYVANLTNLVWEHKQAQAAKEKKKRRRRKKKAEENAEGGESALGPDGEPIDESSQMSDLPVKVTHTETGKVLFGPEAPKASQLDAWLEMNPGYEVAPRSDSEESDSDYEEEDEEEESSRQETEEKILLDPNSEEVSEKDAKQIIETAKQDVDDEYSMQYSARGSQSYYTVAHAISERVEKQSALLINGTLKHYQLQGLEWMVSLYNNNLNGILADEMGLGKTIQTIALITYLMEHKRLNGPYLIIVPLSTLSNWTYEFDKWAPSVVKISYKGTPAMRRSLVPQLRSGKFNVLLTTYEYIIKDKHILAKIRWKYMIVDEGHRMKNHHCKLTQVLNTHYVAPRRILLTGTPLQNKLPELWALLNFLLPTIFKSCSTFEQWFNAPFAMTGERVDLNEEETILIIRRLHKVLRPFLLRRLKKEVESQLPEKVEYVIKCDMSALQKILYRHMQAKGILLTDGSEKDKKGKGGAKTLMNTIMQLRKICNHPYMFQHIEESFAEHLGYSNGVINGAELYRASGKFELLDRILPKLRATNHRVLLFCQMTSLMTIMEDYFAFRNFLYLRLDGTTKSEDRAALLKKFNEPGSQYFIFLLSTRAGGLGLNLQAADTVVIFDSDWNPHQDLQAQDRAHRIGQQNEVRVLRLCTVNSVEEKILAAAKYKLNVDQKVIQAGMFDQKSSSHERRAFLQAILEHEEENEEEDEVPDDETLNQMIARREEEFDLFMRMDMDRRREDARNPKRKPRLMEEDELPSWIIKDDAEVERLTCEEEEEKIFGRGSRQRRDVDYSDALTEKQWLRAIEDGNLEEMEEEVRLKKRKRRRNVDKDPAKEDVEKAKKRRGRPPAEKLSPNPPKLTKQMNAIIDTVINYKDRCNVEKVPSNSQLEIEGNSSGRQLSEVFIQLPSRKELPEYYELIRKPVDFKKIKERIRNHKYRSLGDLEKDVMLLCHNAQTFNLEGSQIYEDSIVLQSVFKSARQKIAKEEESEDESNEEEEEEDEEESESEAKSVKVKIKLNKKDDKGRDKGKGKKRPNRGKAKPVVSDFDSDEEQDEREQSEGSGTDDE

Row | Compound | DC50 [1] [nM] | other results
1 | Cc1ncsc1-c1ccc([C@@H](COCC(C)C)NC(=O)[C@@H]2C[C@@H](O)CN2C(=O)[C@H](c2cc(OCCN3CCN(CCOc4cc(N5C6CCC5CN(c5cc(-c7ccccc7O)nnc5N)C6)ccn4)CC3)no2)C(C)C)cc1 [compound 297] | > 30 | –
2 | Cc1ncsc1-c1ccc([C@H](C)NC(=O)[C@@H]2C[C@@H](O)CN2C(=O)[C@H](c2cc(OCCN3CCC(O[C@H]4C[C@H](Oc5nccc(N6C7CCC6CN(c6cc(-c8ccccc8O)nnc6N)C7)n5)C4)CC3)no2)C(C)C)cc1 [compound 463, (2S,4R)-1-((2S)-2-(3-(2-(4-((1r,3S)-3-((4-(3-(3-amino-6-(2-hydroxyphenyl)pyridazin-4-yl)-3,8-diazabicyclo[3.2.1]octan-8-yl)pyrimidin-2-yl)oxy)cyclobutoxy)piperidin-1-yl)ethoxy)isoxazol-5-yl)-3-methylbutanoyl)-4-hydroxy-N-((S)-1-(4-(4-methylthiazol-5-yl)phenyl)ethyl)pyrrolidine-2-carboxamide] | – | DC50 (target protein degradation, read-out: BRM DC50): > 30 nM
3 | Cc1ncsc1-c1ccc([C@H](CO)NC(=O)[C@@H]2C[C@@H](O)CN2C(=O)[C@H](c2cc(OCCN3CCN(CCOc4cc(N5C6CCC5CN(c5cc(-c7ccccc7O)nnc5N)C6)ccn4)CC3)no2)C(C)C)cc1 [compound 158, (2S,4R)-1-((2S)-2-(3-(2-(4-(2-((4-(3-(3-amino-6-(2-hydroxyphenyl)pyridazin-4-yl)-3,8-diazabicyclo[3.2.1]octan-8-yl)pyridin-2-yl)oxy)ethyl)piperazin-1-yl)ethoxy)isoxazol-5-yl)-3-methylbutanoyl)-4-hydroxy-N-((R)-2-hydroxy-1-(4-(4-methylthiazol-5-yl)phenyl)ethyl)pyrrolidine-2-carboxamide] | > 30 | Dmax [2]: > 75%
4 | Cc1ncsc1-c1ccc([C@H](C)NC(=O)[C@@H]2C[C@@H](O)CN2C(=O)[C@H](c2cc(OCCN3CCC(O[C@H]4C[C@H](Oc5cc(N6C7CCC6CN(c6cc(-c8ccccc8O)nnc6N)C7)ccn5)C4)CC3)no2)C(C)C)cn1 [compound 179, (2S,4R)-1-((2S)-2-(3-(2-(4-((1r,3S)-3-((4-(3-(3-amino-6-(2-hydroxyphenyl)pyridazin-4-yl)-3,8-diazabicyclo[3.2.1]octan-8-yl)pyridin-2-yl)oxy)cyclobutoxy)piperidin-1-yl)ethoxy)isoxazol-5-yl)-3-methylbutanoyl)-4-hydroxy-N-((S)-1-(6-(4-methylthiazol-5-yl)pyridin-3-yl)ethyl)pyrrolidine-2-carboxamide] | > 30 | –
5 | Cc1ncsc1-c1ccc([C@H](C)NC(=O)[C@@H]2C[C@@H](O)CN2C(=O)[C@@H](c2cc(OCCCc3ccc(C(C)n4cc(-c5cc(-c6ccccc6O)nnc5N)cn4)cc3)no2)C(C)C)cc1 (stereo partly drawn) [compound 60, (2S,4R)-1-((2R)-2-(3-(3-(4-(1-(4-(3-amino-6-(2-hydroxyphenyl)pyridazin-4-yl)-1H-pyrazol-1-yl)ethyl)phenyl)propoxy)isoxazol-5-yl)-3-methylbutanoyl)-4-hydroxy-N-((S)-1-(4-(4-methylthiazol-5-yl)phenyl)ethyl)pyrrolidine-2-carboxamide] | < 2.5 | Dmax [3]: > 75%
6 | Cc1ncsc1-c1ccc([C@H](C)NC(=O)[C@@H]2C[C@@H](O)CN2C(=O)[C@H](c2cc(OCCOc3ccc(C(C)n4cc(-c5cc(-c6ccccc6O)nnc5N)cn4)cn3)no2)C(C)C)cc1 (stereo partly drawn) [compound 163, (2S,4R)-1-((2S)-2-(3-(2-((5-(1-(4-(3-amino-6-(2-hydroxyphenyl)pyridazin-4-yl)-1H-pyrazol-1-yl)ethyl)pyridin-2-yl)oxy)ethoxy)isoxazol-5-yl)-3-methylbutanoyl)-4-hydroxy-N-((S)-1-(4-(4-methylthiazol-5-yl)phenyl)ethyl)pyrrolidine-2-carboxamide] | < 2.5 | Dmax [2]: > 75%
7 | Cc1ncsc1-c1ccc([C@H](C)NC(=O)[C@@H]2C[C@@H](O)CN2C(=O)[C@@H](c2cc(OCCN3CCC(O[C@H]4C[C@H](Oc5cc(N6C7CCC6CN(c6cc(-c8ccccc8O)nnc6N)C7)ccn5)C4)CC3)no2)C(C)C)cn1 [compound 180, (2S,4R)-1-((2R)-2-(3-(2-(4-((1r,3R)-3-((4-(3-(3-amino-6-(2-hydroxyphenyl)pyridazin-4-yl)-3,8-diazabicyclo[3.2.1]octan-8-yl)pyridin-2-yl)oxy)cyclobutoxy)piperidin-1-yl)ethoxy)isoxazol-5-yl)-3-methylbutanoyl)-4-hydroxy-N-((S)-1-(6-(4-methylthiazol-5-yl)pyridin-3-yl)ethyl)pyrrolidine-2-carboxamide] | < 2.5 | Dmax [2]: > 75%
8 | Cc1ncsc1-c1ccc([C@H](C)NC(=O)[C@@H]2C[C@@H](O)CN2C(=O)[C@H](c2onc(OCCN3CCC(O[C@H]4C[C@H](Oc5cc(N6C7CCC6CN(c6cc(-c8ccccc8O)nnc6N)C7)ccn5)C4)CC3)c2Cl)C(C)C)cn1 [compound 222, (2S,4R)-1-((2S)-2-(3-(2-(4-((1r,3S)-3-((4-(3-(3-amino-6-(2-hydroxyphenyl)pyridazin-4-yl)-3,8-diazabicyclo[3.2.1]octan-8-yl)pyridin-2-yl)oxy)cyclobutoxy)piperidin-1-yl)ethoxy)-4-chloroisoxazol-5-yl)-3-methylbutanoyl)-4-hydroxy-N-((S)-1-(6-(4-methylthiazol-5-yl)pyridin-3-yl)ethyl)pyrrolidine-2-carboxamide] | > 30 | –
9 | Cc1ncsc1-c1cnc([C@@H](C)NC(=O)[C@@H]2C[C@@H](O)CN2C(=O)[C@H](c2cc(OCCN3CCC(O[C@H]4C[C@H](Oc5cc(N6C7CCC6CN(c6cc(-c8ccccc8O)nnc6N)C7)ccn5)C4)CC3)no2)C(C)C)cn1 [compound 440, (2S,4R)-1-((2S)-2-(3-(2-(4-((1r,3S)-3-((4-(3-(3-amino-6-(2-hydroxyphenyl)pyridazin-4-yl)-3,8-diazabicyclo[3.2.1]octan-8-yl)pyridin-2-yl)oxy)cyclobutoxy)piperidin-1-yl)ethoxy)isoxazol-5-yl)-3-methylbutanoyl)-4-hydroxy-N-((R)-1-(5-(4-methylthiazol-5-yl)pyrazin-2-yl)ethyl)pyrrolidine-2-carboxamide] | – | DC50 (degradation of BRM, read-out: BRM DC50): > 30 nM
10 | Cc1ncsc1-c1ccc([C@H](C)NC(=O)[C@@H]2C[C@@H](O)CN2C(=O)[C@@H](c2cc(N3CCC(CN4CCC(O[C@H]5C[C@@H](N6CCC(C(C)n7cc(-c8cc(-c9ccccc9O)nnc8N)cn7)CC6)C5)CC4)CC3)no2)C(C)C)cc1 (stereo partly drawn) [compound 665, (2S,4R)-1-((2R)-2-(3-(4-((4-((1s,3s)-3-(4-(1-(4-(3-amino-6-(2-hydroxyphenyl)pyridazin-4-yl)-1H-pyrazol-1-yl)ethyl)piperidin-1-yl)cyclobutoxy)piperidin-1-yl)methyl)piperidin-1-yl)isoxazol-5-yl)-3-methylbutanoyl)-4-hydroxy-N-((S)-1-(4-(4-methylthiazol-5-yl)phenyl)ethyl)pyrrolidine-2-carboxamide] | < 2.5 | Dmax [4]: > 75%
11 | Cc1ncsc1-c1c(F)cc([C@H](C)NC(=O)[C@@H]2C[C@@H](O)CN2C(=O)[C@@H](c2cc(N3CCC(CN4CCC(O[C@H]5C[C@H](Oc6cc(N7C8CCC7CN(c7cc(-c9ccccc9O)nnc7N)C8)ccn6)C5)CC4)CC3)no2)C(C)C)cc1F [compound 666, (2S,4R)-1-((2R)-2-(3-(4-((4-((1r,3r)-3-((4-(3-(3-amino-6-(2-hydroxyphenyl)pyridazin-4-yl)-3,8-diazabicyclo[3.2.1]octan-8-yl)pyridin-2-yl)oxy)cyclobutoxy)piperidin-1-yl)methyl)piperidin-1-yl)isoxazol-5-y1)-3-methylbutanoyl)-N-((S)-1-(3,5-difluoro-4-(4-methylthiazol-5-yl)phenyl)ethyl)-4-hydroxypyrrolidine-2-carboxamide] | < 2.5 | Dmax [4]: > 75%
12 | Cc1ncsc1-c1ccc([C@H](C)NC(=O)[C@@H]2C[C@@H](O)CN2C(=O)[C@@H](c2cc(OCCN3CCN(CCOc4cc(N5C6CCC5CN(c5cc(-c7ccccc7O)nnc5N)C6)ccn4)C[C@H]3C)no2)C(C)C)cc1 [compound 142, (2S,4R)-1-((2R)-2-(3-(2-((2R)-4-(2-((4-(3-(3-amino-6-(2-hydroxyphenyl)pyridazin-4-yl)-3,8-diazabicyclo[3.2.1]octan-8-yl)pyridin-2-yl)oxy)ethyl)-2-methylpiperazin-1-yl)ethoxy)isoxazol-5-yl)-3-methylbutanoyl)-4-hydroxy-N-((S)-1-(4-(4-methylthiazol-5-yl)phenyl)ethyl)pyrrolidine-2-carboxamide] | < 2.5 | Dmax [3]: > 75%
13 | Cc1ncsc1-c1ccc([C@H](C)NC(=O)[C@@H]2C[C@@H](O)CN2C(=O)[C@@H](NC(=O)Cc2ccc(N3CCN(CCOCCCc4cc(N5C6CCC5CN(c5cc(-c7ccccc7O)nnc5N)C6)ccn4)CC3)nc2)C(C)(C)C)cc1 [compound 50, (2S,4R)-1-[(2S)-2-[2-[6-(4-[2-[3-(4-[3-[3-amino-6-(2-hydroxyphenyl)pyridazin-4-yl]-3,8-diazabicyclo[3.2.1]octan-8-yl]pyridin-2-yl)propoxy]ethyl]piperazin-1-yl)pyridin-3-yl]acetamido]-3,3-dimethylbutanoyl]-4-hydroxy-N-[(1S)-1-[4-(4-methyl-1,3-thiazol-5-yl)phenyl]ethyl]pyrrolidine-2-carboxamide] | 10 to 30 | Dmax [3]: > 75%
14 | Cc1ncsc1-c1ccc(CNC(=O)[C@@H]2C[C@@H](O)CN2C(=O)[C@H](c2cc(OCCN3CCC(O[C@H]4C[C@H](Oc5cc(N6C7CCC6CN(c6cc(-c8ccccc8O)nnc6N)C7)ccn5)C4)CC3)no2)C(C)C)c(C#N)c1 [compound 224, (2S,4R)-1-((2S)-2-(3-(2-(4-((1r,3S)-3-((4-(3-(3-amino-6-(2-hydroxyphenyl)pyridazin-4-yl)-3,8-diazabicyclo[3.2.1]octan-8-yl)pyridin-2-yl)oxy)cyclobutoxy)piperidin-1-yl)ethoxy)isoxazol-5-yl)-3-methylbutanoyl)-N-(2-cyano-4-(4-methylthiazol-5-yl)benzyl)-4-hydroxypyrrolidine-2-carboxamide] | > 30 | –

— patent publication US12539292B2, “BRM targeting compounds and associated methods of use” (Arvinas Operations, Inc., priority 2018, dated 2026)
